Experimental data taken from US20160166604A1, “Thiol-Sensitive Positive Inotropes” (priority 2005, published 2016).
Several values for one entry are separate records, joined by “and”; a condition that tells them apart may be missing. Equal values may be shown once.

How the values were obtained:
[1] = tested on: cAMP; experiment: cAMP FRET imaging in neonatal rat cardiomyocytes; format: cell-based; settings: applied after AS
Description: Primary cultures of cardiac ventricular myocytes from 1-3 days old Sprague Dawley rats (Charles River Laboratories, Wilmington, Mass.) were prepared as described. Dostal, D. E. et al., Am. J. Physiol., 263, […]-[…] (1992). Cells were transfected with a FRET-based sensor for cAMP (Zaccolo, M. et al., Science, 295, 1711-1715 (2002)) and imaged 48 hrs after transfection. During the experiments, cells were continuously perfused with HEPES buffered Ringer's modified saline (1 mmol/LCaCl2) at room temperature. Cells were imaged on an inverted Olympus IX50 microscope upon excitation at 430 nm. Mongillo, M. et al., Circ. Res., 98, 226-234 (2006). Image analysis was performed by using ImageJ (Rasband, W. S., ImageJ, National Institutes of Health, Bethesda, Md., USA). At each time point, FRET values were measured as the 480 nm/535 nm emission ratio intensity (R) and were normalized to the 480 nm/535 nm value at time 0s (R0). Agents that increase peak Ca^2+ transients coupled to increased sarcomere shortening often do so via a rise in intracellular cAMP and subsequent activation of protein kinase A ([…]. et al., Curr. Med. Chem., 10, 967-981 (2003). To test whether this applied to AS, real-time imaging of cAMP on transfected neonatal rat cardiomyocytes was performed with a cAMP FRET-probe. Zaccolo, M. et al., Science, 295, 1711-1715 (2002). Upon exposure to 1 mM AS, the FRET signal was unchanged (0.3%±0.1%, n=23, p=NS), whereas subsequent application of norepinephrine (10 μM) or phosphodiesterase inhibitor IBMX (100 μM) both increased it by 12% (p<10^-6) (FIG. 2A). Pre-treatment of adult mouse myocytes with the PKA inhibitor […]

[2] = tested on: cardiomyocytes; experiment: Intracellular thiol quantitation (glutathione S-bimane fluorescence, two-photon microscopy); format: cell-based, mouse; settings: GSH (ethyl ester) 4 mM for 3 hrs, n=40
From the text: The cationic potentiometric fluorescent dye tetramethylrhodamine methyl ester (TMRM) was used to monitor changes in ΔΨm as previously described. Cortassa, S. et al., Biophys. J., 87, 2060-2073 (2004). The production of the fluorescent glutathione adduct GSB from the reaction of cell permeant monochlorobimane (MCB) with reduced glutathione (GSH), catalyzed by glutathione S-transferase, was used to measure intracellular glutathione levels, as described. Cortassa, S. et al., Biophys. J., 87, 2060-2073 (2004). Experimental recordings started after exposing the cardiomyocytes to an experimental Tyrode's solution. […] Images were recorded using a two photon laser scanning microscope (Bio-Rad MRC-1024MP) with excitation at 740 nm (Tsunami Ti:Sa laser, Spectra-Physics). The red emission of […] was collected at 605±25 nm and the blue fluorescence of GSB was collected at its maximal emission (480 nm). Images were analyzed offline using ItnageJ software (Wayne Rasband, National Institutes of Health, http://rsb.info.nih.gov/ij/). […]
HNO targets thiol groups on selective proteins. […] Pre-treatment with GSH enhanced intracellular thiol equivalents (+6±1.5% in fluorescence a.u. vs., controls, n=40, p<0.05), as determined by fluorescence assay of glutathione S-bimane production using two-photon microscopy. […]

CC(C)Cn1c(=O)n(C)c(=O)c2[nH]cnc21 [IBMX]
increase of cAMP FRET signal ([1]; IBMX 100 μM): 12%

CCOC(=O)CNC(=O)[C@H](CS)NC(=O)CC[C@H](N)C(=O)O [GSH, GSH ethyl ester]
increase of intracellular thiol equivalents (fluorescence a.u. vs. controls) [2]: 6% and 6±1.5%

NC[C@H](O)c1ccc(O)c(O)c1 [norepinephrine]
increase of cAMP FRET signal ([1]; norepinephrine 10 μM): 12%
